From article PMC9789040, “Inhibition of triple negative breast cancer-associated inflammation and progression by N- acylethanolamine acid amide hydrolase (NAAA)” (Scientific Reports, 2022)
pIC50: −log10 of the molar value.

Biological target: T1, N-acylethanolamine acid amidase (NAAA) (Homo sapiens, UniProt Q02083)
T1 construct: purified human NAAA
T1 sequence (Q02083 29-125): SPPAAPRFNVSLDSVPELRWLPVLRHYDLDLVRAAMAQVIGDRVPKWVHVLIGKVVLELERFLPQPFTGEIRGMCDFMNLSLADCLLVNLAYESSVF
T1 sequence (Q02083 126-359): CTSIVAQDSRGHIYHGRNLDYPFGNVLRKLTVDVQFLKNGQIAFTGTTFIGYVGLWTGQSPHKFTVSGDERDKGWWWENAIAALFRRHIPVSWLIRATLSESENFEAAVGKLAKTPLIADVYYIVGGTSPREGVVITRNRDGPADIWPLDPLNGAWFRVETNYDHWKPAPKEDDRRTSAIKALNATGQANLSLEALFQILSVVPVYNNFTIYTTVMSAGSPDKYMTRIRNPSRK
Assay: fluorogenic PAMCA hydrolysis assay with purified human NAAA, […] min preincubation, 8-point curve
Type: biochemical

- pIC50: 7.70
Compound: COc1ccc(-c2ccc(COC3CC(N=C=S)C3)nc2)cc1F (stereo not shown) [AM11095]
